Reference: paper PMC5603865, “Synthesis, In-Vitro Activity and Metabolic Properties of Quinocetone and Structurally Similar Compounds” (Iranian Journal of Pharmaceutical Research : IJPR, 2017)
Values after ≈ are worked out from the molar mass of the structure shown. Read-outs that look alike come from different tables or passages of the source.

Key:
[1] = system: normal human Chang liver cells; assay: In-vitro cytotoxicity, MTT cell proliferation assay; assay type: cell-based; settings: 24 h incubation, concentration reducing viable cells by 50%
Method: (§1) All test compounds were dissolved in dimethyl sulfoxide (DMSO, Sigma, USA) and then diluted in Dulbecco’s modified Eagle’s medium (DMEM, Gibco, USA) at desired concentrations for cell proliferation analyses or diluted in nutrient broth medium for antimicrobial susceptibility testing respectively. The final concentration of DMSO in the DMEM culture medium was under 0.1% (v:v).
(§2) HepG2 and normal human Chang liver cells were obtained from the Institute of Biochemistry and Cell Biology, Shanghai Institutes for Biological Sciences, Chinese Academy of Sciences (Shanghai, China). HepG2 and normal human Chang liver cells were cultured at 37˚Cwith 5% CO2 in DMEM supplemented with 2% L-glutamine, 10% fetal bovine serum (Gibco, USA), 100 U/mL penicillin and 100 […] (Gibco, USA).
(§3) The methodology for evaluating the cytotoxicity inhibitory activity of various test compounds towards cell proliferation has been described previously ([11], [17]). Cell proliferation inhibitory analyses were carried out using the 3-(4,5-dimethylthiazole-2-yl)-2,5-diphenyl tetrazolium bromide (MTT, Sigma, USA) assay. Briefly, cancers HepG2 and normal human Chang liver cells were harvested and resuspended in fresh growth medium. A 100 μL cell suspension (5 × 10^4 cells/mL) was aliquoted into each well of a 96-well culture plate. After 12 h incubation, the medium was replaced with fresh medium containing various concentrations of test compounds. The cells were then incubated for another 24 h. At the end of exposure, 10 μL of MTT solution (5 mg/mL) was added, and the cells were incubated for 4 h at 37 °C. The cells were treated with 100 μL DMSO, and absorbance was recorded at 570 nm using a microplate ELISA reader (ELX800, Bio-Tek, USA). All experiments were performed at least thrice, and data were presented as the mean of sixplicate wells ± standard deviation (SD). Cell inhibition was calculated as follows:
(§4) (OD of control group − OD of experimental group) / (OD of control group − OD of blank group) ×100%. The IC50 value for a compound was calculated using SPSS.

[2] = system: Clostridium perfringen CVCC52,8604; assay: In-vitro antibacterial activity, MIC by broth dilution (anaerobic chamber); assay type: cell-based; settings: 24 h; for MIC: Clostridium
Method: as §1
(§5) The preliminary antibacterial activities were obtained for selected compounds against various bacteria, namely: Staphyloccocus aureus ATCC25923 (Gram-positive bacteria), Clostridium perfringen CVCC52,8604 (anaerobes bacteria), Salmonella pullorum (Gram-negative bacteria), Escherichia coli ATCC25922 (Gram negative bacteria) and Aeromonas hydrophila (Gram-negative bacteria) were used in the study. Each strain was cultured in appropriate broth medium. Clostridium perfringen was incubated in an anaerobic chamber. The minimum inhibitory concentration (MIC) for each test compound was estimated using the broth dilution method. The MIC’s was determined for each strain/compound pairs that presented antimicrobial activity. The method was modified from Mohapatra›s methods ([14], [15]). Cell suspensions were prepared in 2 mL of liquid medium with concentrations of various tests of compounds in 15 mL culture tubes by inoculation with 100 μL of 10^6 cfu/mL from each stock. The cultures were incubated at 28 °C or 37 °C for 24 h. Tubes showing no visible turbidity represented the MIC, and subsequently, were inoculated on the right side of the 9cm sterile nutrient agar plates without various test compounds and incubated for 24 h (Clostridium perfringen was incubated in an anaerobic chamber.). The least concentration, at which no growth was observed, represented the minimum bactericidal concentration (MBC) ([16]).

[3] = system: Gram-positive and Gram-negative bacteria; assay: Antibacterial activity class based on the MIC results; assay type: cell-based
Method: as §5
In this study, activity of quinoxaline-1, 4-dioxides and their deoxygenations was tested against selected Gram-negative bacteria (Escherichia coli, Salmonella pullorum and Aeromonas hydrophila), Gram-positive bacteria (Staphyloccocus aureus and Clostridium perfringen). The in-vitro antibacterial activity was based on the MIC results: Strong antibacterial activity, if MIC is less than 50 μg/mL; Moderate, if MIC is in between 50 and 250 μg/mL; No activity, if MIC is more than 500 μg/mL.

HepG2 cells = assay: In-vitro cytotoxicity, MTT cell proliferation assay; assay type: cell-based, human; settings: 24 h incubation, concentration reducing viable cells by 50%
Method: as §1, §2, §3, §4

Salmonella pullorum = assay: In-vitro antibacterial activity, MIC by broth dilution; assay type: cell-based; settings: 24 h; for MIC: Salmonella enterica, PULLORUM
Method: as §1, §5

[4] = system: Escherichia coli ATCC25922; assay: as above; assay type: cell-based; settings: for MIC: Escherichia coli, read-out: MIC values Escherichia coli ATCC25922
Method: as §1, §5

[5] = system: Staphyloccocus aureus ATCC25923; assay: as above; assay type: cell-based; settings: 24 h; for MIC: read-out: MIC values Staphyloccocus aureus ATCC25923
Method: as §1, §5

Aeromonas hydrophila = assay: as above; assay type: cell-based; settings: 24 h; for MIC: Aeromonas hydrophila, read-out: MIC values Aeromonas hydrophila
Method: as §1, §5

[6] = Homo sapiens, Chang liver, 24 h
[7] = ATCC25922, broth dilution, 24 h

Molecule	IC50 [1]	IC50 [1, 6]	MIC [2]	antibacterial activity against Gram-positive and Gram-negative bacteria [3]	IC50 (HepG2 cells)	IC50 (HepG2 cells; Homo sapiens, HepG2, 24 h)	MIC (Salmonella pullorum)	MIC [4, 7]	MIC ([5]; broth dilution)	MIC (Aeromonas hydrophila; broth dilution)	MIC [5]	MIC ([4]; ATCC25922, 24 h)	MIC (Aeromonas hydrophila)	MIC values Clostridium perfringen [2]	MIC values Salmonella pullorum (Salmonella pullorum)	MIC values Escherichia coli ATCC25922 ([4]; broth dilution, 24 h)	MIC values Staphyloccocus aureus ATCC25923 ([5]; broth dilution)	MIC values Aeromonas hydrophila (Aeromonas hydrophila; broth dilution)
Cc1c(C(=O)/C=C/c2cccc(O)c2)[n+]([O-])c2ccccc2[n+]1[O-] [Compound 3b]	68 ± 2.9 µM	68 µM	51.5 µg/mL (≈ 160 µM)	strong or moderate activity	30.5 ± 1.3 µM	30 µM	25.8 µg/mL (≈ 79.9 µM)	103 µg/mL (≈ 320 µM)	12.9 µg/mL (≈ 40 µM)	206 µg/mL (≈ 639 µM)	–	–	–	–	–	–	–	–
Cc1nc2ccccc2nc1C(=O)/C=C/c1cccc([N+](=O)[O-])c1 [Compound 5d]	–	499 ± 8.75 µM	> 500 µg/mL	–	–	461 ± 4.49 µM	> 500 µg/mL	> 500 µg/mL	> 500 µg/mL	> 500 µg/mL	–	–	–	–	–	–	–	–
Cc1nc2ccccc2nc1C(=O)/C=C/c1ccc([N+](=O)[O-])cc1 [Compound 5e]	–	590.1 ± 2.22 µM	> 500 µg/mL	–	–	606 ± 34.6 µM	> 500 µg/mL	> 500 µg/mL	> 500 µg/mL	> 500 µg/mL	–	–	–	–	–	–	–	–
CC(=O)c1nc2ccccc2nc1C [Compound 4, 2-acetyl-3-methylquinoxaline]	–	672 ± 23.2 µM	> 500 µg/mL	little or no activity	–	572 ± 36.2 µM	476 µg/mL (≈ 2560 µM)	> 500 µg/mL	> 500 µg/mL	119 µg/mL (≈ 639 µM)	–	–	–	–	–	–	–	–
Cc1nc2ccccc2nc1C(=O)/C=C/c1ccc(Cl)cc1 [Compound 5g]	–	689 ± 46.2 µM	> 500 µg/mL	–	–	533 ± 24.8 µM	> 500 µg/mL	> 500 µg/mL	> 500 µg/mL	> 500 µg/mL	–	–	–	–	–	–	–	–
Cc1c(C(=O)/C=C/c2ccc(Cl)cc2)[n+]([O-])c2ccccc2[n+]1[O-] [Compound 3g]	–	114 ± 4.59 µM	435 µg/mL (≈ 1280 µM)	little or no activity	103 ± 4.08 µM	102 µM	> 500 µg/mL	> 500 µg/mL	27.2 µg/mL (≈ 79.8 µM)	> 500 µg/mL	–	–	–	–	–	–	–	–
COc1ccc(/C=C/C(=O)c2nc3ccccc3nc2C)cc1 [Compound 5f]	–	531 ± 19.3 µM	> 500 µg/mL	–	–	653 ± 32 µM	> 500 µg/mL	> 500 µg/mL	> 500 µg/mL	> 500 µg/mL	–	–	–	–	–	–	–	–
Cc1nc2ccccc2nc1C(=O)/C=C/c1ccccc1O [Compound 5c]	–	361 ± 10.2 µM	> 500 µg/mL	–	–	274 ± 11.6 µM	> 500 µg/mL	> 500 µg/mL	> 500 µg/mL	371 µg/mL (≈ 1280 µM)	–	–	–	–	–	–	–	–
Cc1nc2ccccc2nc1C(=O)/C=C/c1ccco1 [Compound 7, 3-methyl-2-(3-fura-2-propenoyl)-quinoxaline]	–	469 ± 5.26 µM	> 500 µg/mL	–	–	441 ± 12.3 µM	> 500 µg/mL	> 500 µg/mL	> 500 µg/mL	338 µg/mL (≈ 1280 µM)	–	–	–	–	–	–	–	–
Cc1c(C(=O)/C=C/c2ccccc2O)[n+]([O-])c2ccccc2[n+]1[O-] [Compound 3c]	–	192 ± 10.3 µM	25.8 µg/mL (≈ 79.9 µM)	strong or moderate activity	102 ± 4.13 µM	102 µM	103 µg/mL (≈ 320 µM)	103 µg/mL (≈ 320 µM)	–	103 µg/mL (≈ 320 µM)	25.8 µg/mL (≈ 79.9 µM)	–	–	–	–	–	–	–
Cc1nc2ccccc2nc1C(=O)O [Compound 10, 3-methyl-quinoxaline-2-carboxylic acid]	–	2120 ± 90.1 µM	> 500 µg/mL	–	–	2490 ± 133 µM	> 500 µg/mL	> 500 µg/mL	> 500 µg/mL	481 µg/mL (≈ 2560 µM)	–	–	–	–	–	–	–	–
Cc1c(C(=O)/C=C/c2ccco2)[n+]([O-])c2ccccc2[n+]1[O-] [Compound 6, 3-methyl-2-(3-fura-2-propenoyl)-quinoxaline-1,4-dioxide]	–	299 ± 6.72 µM	94.7 µg/mL (≈ 320 µM)	strong or moderate activity	–	240 ± 34.8 µM	189 µg/mL (≈ 639 µM)	–	–	–	94.7 µg/mL (≈ 320 µM)	94.7 µg/mL (≈ 320 µM)	94.7 µg/mL (≈ 320 µM)	–	–	–	–	–
2-(3-phenyl-2-propenyl) -3-methylquinoxaline [Compound 5a]	532 ± 7.66 µM	–	–	–	451 ± 11.1 µM	–	–	–	–	–	–	–	–	>500 µg/mL	>500 µg/mL	>500 µg/mL	>500 µg/mL	>500 µg/mL
COc1ccc(/C=C/C(=O)c2c(C)[n+]([O-])c3ccccc3[n+]2[O-])cc1 [Compound 3f]	86.9 ± 6.3 µM	87 µM	26.9 µg/mL (≈ 79.9 µM)	little or no activity	99.7 ± 2.97 µM	99 µM	> 500 µg/mL	> 500 µg/mL	13.4 µg/mL (≈ 40 µM)	> 500 µg/mL	–	–	–	–	–	–	–	–
CCOC(=O)c1c(C)[n+]([O-])c2ccccc2[n+]1[O-] [Compound 8, 3-methyl-2-quinoxaline-2-carboxylate-1,4-dioxide]	–	217 ± 3.52 µM	4.96 µg/mL (≈ 20 µM)	strong or moderate activity	–	217 ± 3.48 µM	19.8 µg/mL (≈ 79.9 µM)	–	39.7 µg/mL (≈ 160 µM)	39.7 µg/mL (≈ 160 µM)	–	4.96 µg/mL (≈ 20 µM)	–	–	–	–	–	–
Cc1c(C(=O)/C=C/c2ccc(N(C)C)cc2)[n+]([O-])c2ccccc2[n+]1[O-] [Compound 3h]	–	509 ± 14.8 µM	447 µg/mL (≈ 1280 µM)	little or no activity	–	395 ± 14.6 µM	> 500 µg/mL	–	–	223 µg/mL (≈ 639 µM)	447 µg/mL (≈ 1280 µM)	447 µg/mL (≈ 1280 µM)	–	–	–	–	–	–
Cc1nc2ccccc2nc1C(=O)/C=C/c1ccc(N(C)C)cc1 [Compound 5h]	–	567 ± 26.7 µM	> 500 µg/mL	–	–	626 ± 25.4 µM	> 500 µg/mL	> 500 µg/mL	> 500 µg/mL	> 500 µg/mL	–	–	–	–	–	–	–	–
Cc1c(C(=O)/C=C/c2ccc([N+](=O)[O-])cc2)[n+]([O-])c2ccccc2[n+]1[O-] [Compound 3e]	–	536 ± 22.9 µM	449 µg/mL (≈ 1280 µM)	little or no activity	–	449 ± 19.4 µM	225 µg/mL (≈ 639 µM)	–	–	112 µg/mL (≈ 320 µM)	449 µg/mL (≈ 1280 µM)	449 µg/mL (≈ 1280 µM)	–	–	–	–	–	–
CC(=O)c1c(C)[n+]([O-])c2ccccc2[n+]1[O-] [Compound 2, 2-acetyl-3-methylquinoxaline-1,4-dioxide]	–	263 ± 3.11 µM	8.72 µg/mL (≈ 40 µM)	strong or moderate activity	–	288 ± 9.74 µM	17.4 µg/mL (≈ 79.9 µM)	4.36 µg/mL (≈ 20 µM)	17.4 µg/mL (≈ 79.9 µM)	17.4 µg/mL (≈ 79.9 µM)	–	–	–	–	–	–	–	–
Cc1nc2ccccc2nc1C(=O)/C=C/c1cccc(O)c1 [Compound 5b]	–	463 ± 9.91 µM	> 500 µg/mL	–	–	526 ± 20.9 µM	> 500 µg/mL	> 500 µg/mL	> 500 µg/mL	371 µg/mL (≈ 1280 µM)	–	–	–	–	–	–	–	–
